Reference: US10842801B2, “Optimizing mifepristone absorption” (Corcept Therapeutics, Inc., priority 2011, dated 2020)
Read-outs that look alike come from different tables or passages of the source.

How the values were obtained:
[1] = Food effect studies: pharmacokinetics of mifepristone under fasting and fed conditions; format: in vivo, human; settings: for AUC(0-inf) / Cmax / AUC(0-t): human, plasma, oral; for AUC(0-inf): read-out: AUCinf Geo Mean; for Cmax: read-out: Cmax Geo Mean; for AUC(0-t): read-out: AUC0-24 Geo Mean
Method: Blood is collected from a patient in a vacutainer containing sodium heparin. The blood is centrifuged and the resulting plasma frozen at an appropriate temperature until assay. In some embodiments, the temperature is about -70° C. In other embodiments, other blood components can be collected and stored. Prior to analysis, the plasma is thawed and a fraction of the plasma is mixed with an internal standard in a solvent such as acetonitrile, to obtain a fixed concentration of the standard. In some embodiments, the internal standard can be mifepristone-d4. […] Base is then added to the sample solution. The base can be any amine or ammonium base, such as ammonium hydroxide. […] Solvent is then added to the solution and the mifepristone (along with the internal standard) are extracted from the plasma. […] Following separation and concentration of the organic layer, the sample is reconstituted in a solvent mixture comprising water, acetonitrile and formic acid. The ratio of the solvent components can vary. In some embodiments, the solvent mixture is water:acetonitrile:formic acid (75:25:0.1, v/v/v). […] The sample can then be analyzed by reverse-phase high pressure liquid chromatography (HPLC). In some embodiments, the reverse-phase HPLC is performed using a water:acetonitrile:formic acid (60:40:0.1) mobile phase (isocratic) at a flow rate of 0.3 mL/min. […] The reverse-phase HPLC column can be a phenyl column maintained at 50° C. […] Following elution, the mobile phase can be nebulized using heated nitrogen in a Z-spray source/interface and the ionized compounds detected using a tandem quadrupole mass spectrometer. Mifepristone (molecular weight of 430 g/mol) can be detected at m/z 372.30. The internal standard mifepristone-d4 can be detected at m/z 376.30. The ratio of the mifepristone peak height to the peak height for the internal standard can then be calculated. The plasma concentration of mifepristone is then calculated by comparing the experimental ratio to a standard curve of mifepristone:mifepristone-d4 peak height ratio v. mifepristone concentration. […] In all studies, healthy adults were randomized to a sequence of administration of mifepristone drug product under fasting and fed conditions. […] The test group was comprised of 10 healthy adult subjects who were randomized to receive mifepristone at 600 mg/day for up to 14 days in Cohort 3 of Study CORT-108297-102. For this comparison the PK data after 7 days of dosing were used. […] The meal was given every day at approximately 30 min prior to receiving mifepristone, which was dosed as two 300 mg tablets once daily.

[2] = Plasma drug concentration in different patients given the same dose of mifepristone; format: in vivo, human
[3] = 600 mg single dose, Fed (50% fat) vs Fast, Study 12
[4] = 600 mg/day for 7 days following a breakfast of 34% fat, Day 7
[5] = 600 mg/day x 7 days, Fed (34% fat) vs Fast, C3
[6] = 1200 mg single dose, Fed (50% fat) vs Fast, Study 20
[7] = 1200 mg/day x 7 days, Fed (34% fat) vs Fast, Study 27
[8] = 1200 mg/day, high fat (50%) meal on day 8 after 7 days with typical fat meals
[9] = 600 mg, 600 mg single dose, Fast, healthy adults, Study 12
[10] = 600 mg, 600 mg single dose, Fed 50% fat, healthy adults, Study 12
[11] = 600 mg/day, 600 mg/day x 7 days, Fast, healthy adults, historical Studies C-1073-05 and C-1073-300 Part II (reference for C3)
[12] = 600 mg/day, 600 mg/day x 7 days, Fed 34% fat, healthy adults, Cohort 3 of CORT-108297-102
[13] = 1200 mg, 1200 mg single dose, Fast, healthy adults, Study 20
[14] = 1200 mg, 1200 mg single dose, Fed 50% fat, healthy adults, Study 20
[15] = 1200 mg/day, 1200 mg/day x 7 days, Fed 34% fat, healthy adults, Study 27

Q: Which results are given for `CC#C[C@]1(O)CC[C@H]2[C@@H]3CCC4=CC(=O)CCC4=C3[C@@H](c3ccc(N(C)C)cc3)C[C@@]21C` [Mifepristone, 17-beta-hydroxy-11-beta-(4-dimethyl-aminophenyl)-17-alpha-(1-propynyl)-estra-4,9-dien-3-one]?
A: AUCinf Ratio of Geometric Means [1, 3]: 1.29; Cmax Ratio of Geometric Means [1, 3]: 1.19; increase in AUC0-24 as compared to the same dose in the fasted state [1, 4]: 44%; increase in Cmax as compared to the same dose in the fasted state [1, 4]: 34%; AUC0-24 Ratio of Geometric Means [1, 5]: 1.44; Cmax Ratio of Geometric Means [1, 5]: 1.34; AUCinf Ratio of Geometric Means [1, 6]: 1.42; Cmax Ratio of Geometric Means [1, 6]: 1.30; mean increase in mifepristone exposure relative to the fasted state ([1]; 1200 mg/day for 7 days with typical fat meals vs 7 days fasted): 65%; Cmax Geo Mean ([1]; 1200 mg/day x 7 days, Fast, healthy adults, Study 27): 3223 ng/mL; AUC0-24 Ratio of Geometric Means [1, 7]: 1.65; Cmax Ratio of Geometric Means [1, 7]: 1.56; effect on Cmax of switching to a high fat meal [1, 8]: little or no effect; effect on exposure of switching to a high fat meal [1, 8]: little or no effect; AUC(0-inf) [1, 9]: 104000 ng·h/mL; Cmax [1, 9]: 2310 ng/mL; AUC(0-inf) [1, 10]: 134000 ng·h/mL; Cmax [1, 10]: 2740 ng/mL; AUC(0-t) [1, 11]: 43600 ng·h/mL; Cmax [1, 11]: 3040 ng/mL; AUC(0-t) [1, 12]: 62600 ng·h/mL; Cmax [1, 12]: 4070 ng/mL; AUC(0-inf) [1, 13]: 134000 ng·h/mL; Cmax [1, 13]: 2830 ng/mL; AUC(0-inf) [1, 14]: 191000 ng·h/mL; Cmax [1, 14]: 3660 ng/mL; AUC(0-t) ([1]; 1200 mg/day, 1200 mg/day x 7 days, Fast, healthy adults, Study 27): 44200 ng·h/mL; AUC(0-t) [1, 15]: 72800 ng·h/mL; Cmax [1, 15]: 5040 ng/mL; dose proportionality of exposure and Cmax ([1]; multiple dosing, doses above 600 mg, fasted): strong lack of dose proportionality; difference in plasma drug concentration from one patient to another [2]: ≤ 800%
